Data taken from article PMC9249104 (Nature chemical biology, 2021).
Entries after “also recorded” stand apart in the source; their conditions may differ. Where two headings read alike, the source gives them in different places.

How the values were obtained:
MCF-7 cells = test: Cell viability; assay type: cell-based; settings: MCF-7, 72 hours
PIK3CD = PIK3CD (Homo sapiens, UniProt O00329); test: KiNativ kinome screen in Ramos cells: PIK3CD; settings: read-out: inhibition of PIK3CD
[1] = system: mTORC1 signaling (p4EBP1 T37/T46); test: p4EBP1 T37/T46 in parental and FKBP12 knockout NCI-H358 cells; assay type: cell-based
[2] = system: 4EBP1 T37/T46 phosphorylation (mTORC1); test: AlphaLISA/MSD p4EBP1 T37/T46 in MDA-MB-468 cells; assay type: cell-based
[3] = system: 4EBP1/2 WT and 4EBP1/2 DKO MEFs; test: Cell growth of E1A/Ras-transformed 4EBP1/2 WT and DKO MEFs; assay type: cell-based, mouse; settings: 72 hours
[4] = MCF-7 subcutaneous xenograft: body weight; settings: MCF-7 xenograft mice; bi-steric inhibitors ip once weekly, MLN0128 po daily
p4EBP1 T37/T46 = test: FK506 competition, p4EBP1 T37/T46 in MDA-MB-468 cells; assay type: cell-based
[5] = system: AKT S473 phosphorylation (mTORC2); test: AlphaLISA/MSD pAKT S473 in MDA-MB-468 cells; assay type: cell-based
[6] = Two-day glucose tolerance test; assay type: in vivo; settings: mice, one hour after inhibitor administration
[7] = system: S6K T389 phosphorylation (mTORC1); test: AlphaLISA pS6K T389 in MDA-MB-468 cells; assay type: cell-based
[8] = system: mTOR FRB mutation (F2108L); test: Immunoblot of parental MCF-7 and MCF-7 cells harboring mTOR F2108L; assay type: cell-based; settings: MCF-7, four hours
kinases other than mTOR = test: KiNativ kinome screen in Ramos cells: kinases other than mTOR; settings: 1 µM
pAKT S473 [9] = test: Immunoblot of MCF-7 cells overexpressing Myr-AKT or vector control; assay type: cell-based; settings: 4 hours; for effect on pAKT S473 in Myr-AKT cells: MCF-7 Myr-AKT cells, BiS-31x up to 100 nM; for effect on pAKT S473 in parental cells: MCF-7 parental cells
mTORC1 over mTORC2 = test: mTORC1/2 selectivity: potencies for inhibition of 4EBP1 T37/T46; assay type: cell-based; settings: MDA-MB-468; p4EBP1 T37/T46 vs pAKT S473 potencies
[10] = system: HER3 expression and phosphorylation; test: Immunoblot of MCF-7 and BT474 cells: HER3; assay type: cell-based; settings: 10 nM, by 24 hours
pAKT S473 [11] = test: Immunoblot of MCF-7 and BT474 cells: pAKT S473; assay type: cell-based; settings: 10 nM, by 4 hours
mTORC1 = settings: cited from earlier work
global protein synthesis = test: Puromycin incorporation in MCF-7 cells; assay type: cell-based; settings: MCF-7, 4 hours
eIF4F complex formation = test: In vitro cap-binding affinity assay, MDA-MB-468 sgGFP and sg4EBP1 cells; assay type: cell-based; settings: 3 nM, 4 and 24 hours, MDA-MB-468 sgGFP cells
[12] = system: pS6K T389, pAKT S473, cyclin D1; test: Immunoblot of MDA-MB-468 and MCF-7 sgGFP and sg4EBP1 cells; assay type: cell-based; settings: 4 hours
[13] = system: MDA-MB-468 sgGFP and sg4EBP1 cells; test: Cell viability of MDA-MB-468 sgGFP and sg4EBP1 cells; assay type: cell-based; settings: for concentration suppressing proliferation: five days
AKT S473 phosphorylation = test: Immunoblot of PC3 cells, 4 or 24 hours; assay type: cell-based
[14] = mouse, in vivo
FKBP12 = FKBP12 (Homo sapiens, UniProt P62942); test: TR-FRET competitive binding assay for FKBP12
Sequence of FKBP12 (P62942 whole entry): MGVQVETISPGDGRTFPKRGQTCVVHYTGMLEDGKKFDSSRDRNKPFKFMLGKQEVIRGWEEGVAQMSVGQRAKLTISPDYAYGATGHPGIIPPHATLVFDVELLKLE

Sequence of PIK3CD (O00329 whole entry): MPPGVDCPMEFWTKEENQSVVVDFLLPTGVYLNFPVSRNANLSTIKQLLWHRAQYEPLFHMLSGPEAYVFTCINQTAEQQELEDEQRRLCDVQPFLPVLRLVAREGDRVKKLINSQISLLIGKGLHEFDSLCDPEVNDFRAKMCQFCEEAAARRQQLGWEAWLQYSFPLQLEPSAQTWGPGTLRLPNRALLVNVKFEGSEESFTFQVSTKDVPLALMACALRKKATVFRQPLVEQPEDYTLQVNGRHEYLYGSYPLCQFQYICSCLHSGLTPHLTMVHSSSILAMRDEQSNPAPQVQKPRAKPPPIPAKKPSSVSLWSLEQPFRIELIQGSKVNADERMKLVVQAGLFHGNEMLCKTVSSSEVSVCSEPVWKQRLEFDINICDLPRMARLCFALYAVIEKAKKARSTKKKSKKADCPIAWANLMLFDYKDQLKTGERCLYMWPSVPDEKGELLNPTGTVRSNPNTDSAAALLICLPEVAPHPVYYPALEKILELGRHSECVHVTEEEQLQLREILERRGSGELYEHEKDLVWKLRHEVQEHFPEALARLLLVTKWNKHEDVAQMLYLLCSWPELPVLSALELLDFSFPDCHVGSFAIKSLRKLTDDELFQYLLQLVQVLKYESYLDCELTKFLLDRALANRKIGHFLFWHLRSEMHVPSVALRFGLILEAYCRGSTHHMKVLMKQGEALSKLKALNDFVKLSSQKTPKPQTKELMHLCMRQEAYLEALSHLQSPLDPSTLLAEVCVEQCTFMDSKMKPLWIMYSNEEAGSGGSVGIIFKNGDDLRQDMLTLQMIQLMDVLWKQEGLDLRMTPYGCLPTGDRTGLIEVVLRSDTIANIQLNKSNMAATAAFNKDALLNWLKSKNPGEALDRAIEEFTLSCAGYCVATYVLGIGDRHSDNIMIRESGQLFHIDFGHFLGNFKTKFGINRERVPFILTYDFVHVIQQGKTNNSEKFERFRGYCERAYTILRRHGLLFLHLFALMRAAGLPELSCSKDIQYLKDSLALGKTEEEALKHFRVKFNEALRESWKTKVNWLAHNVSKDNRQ
Sequence of PIK3CD (P27986 whole entry partner): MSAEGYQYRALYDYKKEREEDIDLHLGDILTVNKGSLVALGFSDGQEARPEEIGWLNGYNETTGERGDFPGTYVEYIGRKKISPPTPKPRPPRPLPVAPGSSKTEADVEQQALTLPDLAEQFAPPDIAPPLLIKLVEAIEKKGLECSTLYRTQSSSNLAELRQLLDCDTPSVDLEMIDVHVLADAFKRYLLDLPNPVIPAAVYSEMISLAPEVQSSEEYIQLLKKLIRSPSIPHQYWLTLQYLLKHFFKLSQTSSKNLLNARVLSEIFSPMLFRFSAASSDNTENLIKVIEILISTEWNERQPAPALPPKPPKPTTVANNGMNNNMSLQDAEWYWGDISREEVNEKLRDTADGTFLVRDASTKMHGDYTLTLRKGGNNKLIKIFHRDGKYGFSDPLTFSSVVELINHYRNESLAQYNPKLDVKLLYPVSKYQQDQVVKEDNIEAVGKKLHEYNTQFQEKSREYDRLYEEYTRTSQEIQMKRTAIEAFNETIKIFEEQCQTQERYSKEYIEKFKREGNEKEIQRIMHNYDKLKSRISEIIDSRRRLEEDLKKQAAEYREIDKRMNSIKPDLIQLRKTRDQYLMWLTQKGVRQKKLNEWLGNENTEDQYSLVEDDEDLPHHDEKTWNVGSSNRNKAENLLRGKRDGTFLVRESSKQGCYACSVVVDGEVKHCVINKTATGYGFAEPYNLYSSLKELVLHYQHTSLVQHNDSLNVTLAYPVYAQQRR

CC(C)n1nc(-c2ccc3oc(N)nc3c2)c2c(N)ncnc21 [MLN0128]
GI50 relative to BiS-NS and BiS-13x (less potent) (MCF-7 cells): 10 fold | inhibition at 1 µM (PIK3CD): 69% | impact of FKBP12 knockout on inhibitory activity [1]: Neither FKBP12 knockout nor addition of FK506 had an impact | effect on p4EBP1 T37/T46 [2]: inhibited | sensitivity to cell growth inhibition in 4EBP1/2 DKO MEFs compared to WT MEFs [3]: a similar pattern was observed | maximum loss in body weight [4]: up to 15% | impact of addition of FK506 on inhibitory activity (p4EBP1 T37/T46): Neither FKBP12 knockout nor addition of FK506 had an impact | effect on pAKT S473 [5]: inhibited | return of glucose levels to baseline after the first glucose challenge [6]: delayed

CC(C)n1nc(-c2cc3cc(O)ccc3[nH]2)c2c(N)ncnc21 [PP242]
effect on p4EBP1 T37/T46 [2]: inhibited | effect on pAKT S473 [5]: inhibited

CO[C@H]1C[C@@H]2CC[C@@H](C)[C@@](O)(O2)C(=O)C(=O)N2CCCC[C@H]2C(=O)O[C@H]([C@H](C)C[C@@H]2CC[C@@H](O)[C@H](OC)C2)C[C@@H](OC)[C@H](C)/C=C(\C)[C@@H](O)[C@@H](OC)/C(=N/OCc2cn(CCOCCOCCOCCOCCOCCOCCOCCOCCC(=O)NCCCCn3nc(-c4ccc5oc(N)nc5c4)c4c(N)ncnc43)nn2)[C@H](C)C[C@H](C)/C=C/C=C/C=C/1C [RMC-4529]
GI50 relative to BiS-NS and BiS-13x (less potent) (MCF-7 cells): 10 fold | IC50 ([7]; read-out: S6K IC50): 0.98 nM | IC50 ([2]; read-out: 4EBP1 T37/T46 IC50): 6.37 nM | reduction in potency in cells with mTOR FRB mutation (F2108L) [8]: 10 fold | maximum loss in body weight [4]: 5% | interactions with kinases other than mTOR (kinases other than mTOR): No interactions | effect on pAKT S473 in Myr-AKT cells (pAKT S473 [9]): did not inhibit | effect on pAKT S473 in parental cells (pAKT S473 [9]): increase | selectivity for mTORC1 over mTORC2 (mTORC1 over mTORC2): 31 fold

CO[C@@H]1C[C@@H]2CC[C@@H](C)[C@@](O)(O2)C(=O)C(=O)N2CCCC[C@@H]2C(=O)O[C@H]([C@H](C)C[C@H]2CC[C@H](OCCOCc3cn(CCOCCOCCOCCOCCOCCOCCOCCOCCC(=O)NCCCCn4nc(-c5ccc6oc(N)nc6c5)c5c(N)ncnc54)nn3)[C@H](OC)C2)CC(=O)[C@H](C)/C=C(\C)[C@H](O)[C@@H](OC)C(=O)[C@H](C)C[C@H](C)/C=C/C=C/C=C/1C [RapaLink-1]
effect on HER3 expression and phosphorylation [10]: increased | effect on pAKT S473 (pAKT S473 [11]): abolished | effect on pS6K T389 [7]: equipotent | effect on p4EBP1 T37/T46 [2]: equipotent | selectivity for mTORC1 (mTORC1): three- to four | effect on global protein synthesis (global protein synthesis): suppressed | displacement of eIF4G by 4EBP1 in the cap-binding complexes (eIF4F complex formation): significant displacement | effect on pS6K T389 and pAKT S473 ([12]; control (sgGFP) and sg4EBP1 cells): suppressed pS6K T389 and pAKT S473 effectively and equivalently | effect on cyclin D1 levels ([12]; sg4EBP1 cells): unaffected | effect on cyclin D1 levels ([12]; sgGFP cells): reduced | effect on pAKT S473 in Myr-AKT cells (pAKT S473 [9]): inhibited | effect on pAKT S473 in parental cells (pAKT S473 [9]): inhibited | selectivity for mTORC1 over mTORC2 (mTORC1 over mTORC2): three- to four; also recorded: approximately four | sensitivity of sg4EBP1 cells compared to sgGFP cells (less sensitive) ([13]; MDA-MB-468, five days): three | concentration suppressing proliferation ([13]; MDA-MB-468 sg4EBP1 cells): 0.3 nM | concentration suppressing proliferation ([13]; MDA-MB-468 sgGFP cells): 0.1 nM

CO[C@H]1C[C@@H]2CC[C@@H](C)[C@@](O)(O2)C(=O)C(=O)N2CCCC[C@H]2C(=O)O[C@H]([C@H](C)C[C@@H]2CC[C@@H](O)[C@H](OC)C2)CC(=O)[C@H](C)/C=C(\C)[C@@H](O)[C@@H](OC)C(=O)[C@H](C)C[C@H](C)/C=C/C=C/C=C/1C [Rapamycin]
effect on pS6K T389 [7]: inhibited | effect on AKT S473 phosphorylation (AKT S473 phosphorylation): significant inhibition | effect on pAKT S473 [5]: increased

RMC-4627
maximum loss in body weight [14]: 10% | effect on pS6K T389 [7]: equipotent | effect on p4EBP1 T37/T46 [2]: equipotent | affinity for FKBP12 relative to rapamycin (lower) (FKBP12): approximately 3 fold | selectivity for mTORC1 over mTORC2 (mTORC1 over mTORC2): 13 fold
